Experimental data from PubChem BioAssay AID200 (DTP/NCI, 2004).
Values joined by “and” are separate entries in the source; they are usually repeats but may differ in a detail not shown here. Identical values can stand only once. Toxic doses and inconclusive results are not listed. Where a SMILES comes first, the peptide text is derived from it.

Tested on: B6C3F1 mice, B16 melanoma ip, median survival T/C
Assay: NCI In Vivo Anticancer Drug Screen. Data for tumor model B16 Melanoma (intraperitoneal) in B6C3F1 mice
Conditions: endpoint: median survival time, higher = longer survival
Procedure: The antitumor activity of compounds was measured in mice bearing transplantable tumors. Survival or tumor size were measured and the results are expressed as the measurement made in the treated group (T) divided by the measurement made in the vehicle treated control group (C). The tumor model used in this assay is B16 Melanoma (intraperitoneal) in B6C3F1 mice

[1] = dose: 6.25 mg/kg/injection, schedule: Q01DX009 (ip), vehicle: Klucel (hydroxypropylcellulose) (HPC)
[2] = dose: 12.5 mg/kg/injection, schedule: Q01DX009 (ip), vehicle: Klucel (hydroxypropylcellulose) (HPC)
[3] = dose: 25.0 mg/kg/injection, schedule: Q01DX009 (ip), vehicle: Klucel (hydroxypropylcellulose) (HPC)
[4] = dose: 50.0 mg/kg/injection, schedule: Q01DX009 (ip), vehicle: Klucel (hydroxypropylcellulose) (HPC)
[5] = dose: 100.0 mg/kg/injection, schedule: Q01DX009 (ip), vehicle: Klucel (hydroxypropylcellulose) (HPC)
[6] = dose: 6.25 mg/kg/injection, schedule: Q01DX009 (ip), vehicle: water
[7] = dose: 12.5 mg/kg/injection, schedule: Q01DX009 (ip), vehicle: water
[8] = dose: 25.0 mg/kg/injection, schedule: Q01DX009 (ip), vehicle: water
[9] = dose: 50.0 mg/kg/injection, schedule: Q01DX009 (ip), vehicle: water
[10] = dose: 25.0 mg/kg/injection, schedule: Q01DX009 (ip), vehicle: saline
[11] = dose: 100.0 mg/kg/injection, schedule: Q01DX009 (ip), vehicle: saline
[12] = dose: 200.0 mg/kg/injection, schedule: Q01DX009 (ip), vehicle: saline
[13] = dose: 400.0 mg/kg/injection, schedule: Q01DX009 (ip), vehicle: saline

In the case of `CC(C)(O)[C@H]1[C@@H]2OC(=O)[C@H]1[C@]1(O)C[C@H]3OC34C(=O)O[C@H]2[C@@]41C` (stereo partly drawn) (tested in a mixture with another compound), the T/C (dose: 0.25 mg/kg/injection, schedule: Q01DX009 (ip), vehicle: Klucel (hydroxypropylcellulose) (HPC)) is reported as 110 % of control, the T/C (dose: 0.5 mg/kg/injection, schedule: Q01DX009 (ip), vehicle: Klucel (hydroxypropylcellulose) (HPC)) is reported as 99 % of control and the T/C (dose: 1.0 mg/kg/injection, schedule: Q01DX009 (ip), vehicle: Klucel (hydroxypropylcellulose) (HPC)) is reported as 108 % of control. For the same molecule, the T/C (dose: 2.0 mg/kg/injection, schedule: Q01DX009 (ip), vehicle: Klucel (hydroxypropylcellulose) (HPC)) was 111 % of control.
For `[N-]=[N+]=C1N=CN=C1c1ncn[nH]1`, the T/C (dose: 3.12 mg/kg/injection, schedule: Q01DX009 (ip), vehicle: Klucel (hydroxypropylcellulose) (HPC)) was 104 % of control, the T/C [1] was 113 % of control and the T/C [2] was 121 % of control.
For `CCCCCCCCCCCCCCCCCC(=O)OCC(=O)OCC(=O)[C@]1(O)Cc2c(O)c3c(c(O)c2[C@@H](OC2CC(N)C(O)C(C)O2)C1)C(=O)c1c(OC)cccc1C3=O` (stereo partly drawn), the T/C (dose: 0.75 mg/kg/injection, schedule: Q01DX009 (ip), vehicle: saline) was 160 % of control and 211 % of control, the T/C (dose: 1.5 mg/kg/injection, schedule: Q01DX009 (ip), vehicle: saline) was 208 % of control and 333 % of control and the T/C (dose: 3.0 mg/kg/injection, schedule: Q01DX009 (ip), vehicle: saline) was 255 % of control and 333 % of control. For the same molecule, the T/C (dose: 6.0 mg/kg/injection, schedule: Q01DX009 (ip), vehicle: saline) was 238 % of control and 333 % of control.
`CSc1nc(=O)[nH]nc1SCc1ccccc1` was tested, and the T/C [2] was 105 % of control, the T/C [3] was 104 % of control and the T/C [4] was 104 % of control. The T/C [5] was 107 % of control, the T/C (dose: 200.0 mg/kg/injection, schedule: Q01DX009 (ip), vehicle: Klucel (hydroxypropylcellulose) (HPC)) was 96 % of control and the T/C (dose: 400.0 mg/kg/injection, schedule: Q01DX009 (ip), vehicle: Klucel (hydroxypropylcellulose) (HPC)) was 115 % of control.
With `Cc1c(-c2ccc(-c3ccccc3F)cc2)nc2ccc(F)cc2c1C(=O)O` the T/C [6] was 118 % of control and 102 % of control, the T/C [7] was 107 % of control and the T/C [8] was 124 % of control.
For `O=NNc1cccnc1`, the T/C [6] was 107 % of control, the T/C [7] was 121 % of control and the T/C [8] was 111 % of control. The T/C [9] was 100 % of control and the T/C (dose: 100.0 mg/kg/injection, schedule: Q01DX009 (ip), vehicle: water) was 107 % of control.
In the case of `Nc1n[n+](-c2ccc(Cl)cc2)no1`, the T/C (dose: 3.12 mg/kg/injection, schedule: Q01DX009 (ip), vehicle: water) is reported as 109 % of control, the T/C [6] is reported as 102 % of control and 107 % of control and the T/C [7] is reported as 103 % of control. The T/C [8] was 111 % of control and 123 % of control and the T/C [9] was 116 % of control.
With `O=C(O)CC(NC(=O)CP(=O)(O)O)C(=O)O` (stereo not drawn) the T/C [10] was 160 % of control, the T/C (dose: 37.5 mg/kg/injection, schedule: Q01DX005 (ip), vehicle: saline) was 121 % of control and the T/C (dose: 37.5 mg/kg/injection, schedule: Q01DX005 (iv), vehicle: saline) was 119 % of control. The T/C (dose: 50.0 mg/kg/injection, schedule: Q01DX009 (ip), vehicle: saline) was 172 % of control, the T/C (dose: 75.0 mg/kg/injection, schedule: Q01DX001 (ip), vehicle: saline) was 120 % of control and the T/C (dose: 75.0 mg/kg/injection, schedule: Q01DX001 (iv), vehicle: saline) was 110 % of control. For the same molecule, the T/C (dose: 75.0 mg/kg/injection, schedule: Q01DX005 (iv), vehicle: saline) was 123 % of control, the T/C [11] was 202 % of control and the T/C (dose: 150.0 mg/kg/injection, schedule: Q01DX001 (iv), vehicle: saline) was 116 % of control. For the same molecule, the T/C (dose: 150.0 mg/kg/injection, schedule: Q01DX005 (ip), vehicle: saline) was 178 % of control, the T/C (dose: 150.0 mg/kg/injection, schedule: Q01DX005 (iv), vehicle: saline) was 114 % of control and the T/C [12] was 226 % of control. The T/C (dose: 300.0 mg/kg/injection, schedule: Q01DX001 (iv), vehicle: saline) was 115 % of control and the T/C (dose: 300.0 mg/kg/injection, schedule: Q01DX005 (ip), vehicle: saline) was 163 % of control.
In the case of `N=C(N)c1nn(C2OC(CO)C(O)C2O)c2nc[nH]c(=O)c12` (stereo not drawn), the T/C (dose: 2.25 mg/kg/injection, schedule: Q01DX009 (ip), vehicle: Klucel (hydroxypropylcellulose) (HPC)) is reported as 92 % of control and 102 % of control, the T/C (dose: 3.12 mg/kg/injection, schedule: Q01DX009 (ip), vehicle: Klucel + Tween-80) is reported as 99 % of control and the T/C (dose: 3.75 mg/kg/injection, schedule: Q01DX009 (ip), vehicle: Klucel (hydroxypropylcellulose) (HPC)) is reported as 112 % of control and 101 % of control. For the same molecule, the T/C [1] was 112 % of control and 90 % of control, the T/C (dose: 10.42 mg/kg/injection, schedule: Q01DX009 (ip), vehicle: Klucel (hydroxypropylcellulose) (HPC)) was 92 % of control and the T/C (dose: 17.36 mg/kg/injection, schedule: Q01DX009 (ip), vehicle: Klucel (hydroxypropylcellulose) (HPC)) was 110 % of control and 98 % of control.
With `F[B-](F)(F)F` the T/C (dose: 12.5 mg/kg/injection, schedule: Q01DX009 (ip), vehicle: gum acacia) was 99 % of control, the T/C (dose: 25.0 mg/kg/injection, schedule: Q01DX009 (ip), vehicle: gum acacia) was 118 % of control and the T/C (dose: 50.0 mg/kg/injection, schedule: Q01DX009 (ip), vehicle: gum acacia) was 100 % of control and 106 % of control. For the same molecule, the T/C (dose: 100.0 mg/kg/injection, schedule: Q01DX009 (ip), vehicle: gum acacia) was 98 % of control and 106 % of control, the T/C (dose: 200.0 mg/kg/injection, schedule: Q01DX009 (ip), vehicle: gum acacia) was 108 % of control and 112 % of control and the T/C (dose: 400.0 mg/kg/injection, schedule: Q01DX009 (ip), vehicle: gum acacia) was 93 % of control and 99 % of control.
In the case of `NC(N)=NCCCC(N)C(=O)NCC(=O)NCC(=O)O` (stereo not drawn) (HELM PEPTIDE1{[N=C(N)NCCCC(N)C(=O)[*:2]].G.G}$$$$V2.0), the T/C [11] is reported as 107 % of control, the T/C [12] is reported as 102 % of control and the T/C [13] is reported as 111 % of control.
With `c1ccc(CN2COc3c(ccc4c3OCN(Cc3ccccc3)C4)C2)cc1` the T/C [3] was 111 % of control, the T/C [4] was 96 % of control and the T/C [5] was 95 % of control.
`NC(N)=NCCCC(NC(=O)c1ccccc1)C(=O)O` (stereo not drawn) was tested, and the T/C (dose: 40.0 mg/kg/injection, schedule: Q01DX009 (ip), vehicle: saline with Tween-80) was 95 % of control and 102 % of control (2×), the T/C (dose: 80.0 mg/kg/injection, schedule: Q01DX009 (ip), vehicle: saline with Tween-80) was 122 % of control and 95 % of control and 96 % of control and the T/C (dose: 160.0 mg/kg/injection, schedule: Q01DX009 (ip), vehicle: saline with Tween-80) was 108 % of control and 102 % of control. The T/C (dose: 320.0 mg/kg/injection, schedule: Q01DX009 (ip), vehicle: saline with Tween-80) was 108 % of control and 105 % of control and 106 % of control and the T/C (dose: 640.0 mg/kg/injection, schedule: Q01DX009 (ip), vehicle: saline with Tween-80) was 113 % of control.
With `CN1c2ccc3ccccc3c2Sc2ccc3ccccc3c21` the T/C [11] was 100 % of control, the T/C [12] was 100 % of control and the T/C [13] was 118 % of control.
For `OC(CCl)CN1CC[N+]2(CC1)CC[N+]1(CCN(CC(O)CCl)CC1)CC2` (stereo not drawn), the T/C (dose: 4.68 mg/kg/injection, schedule: Q01DX009 (ip), vehicle: saline) was 118 % of control, the T/C (dose: 9.37 mg/kg/injection, schedule: Q01DX009 (ip), vehicle: saline) was 106 % of control and the T/C (dose: 12.5 mg/kg/injection, schedule: Q01DX009 (ip), vehicle: saline) was 172 % of control. The T/C (dose: 18.75 mg/kg/injection, schedule: Q01DX009 (ip), vehicle: saline) was 98 % of control, the T/C [10] was 183 % of control and the T/C (dose: 37.5 mg/kg/injection, schedule: Q01DX009 (ip), vehicle: saline) was 106 % of control.
In the case of `OC1CCCC2CCC[N-]C12.OC1CCCC2CCC[N-]C12.[Mn+2]` (stereo not drawn), the T/C [3] is reported as 109 % of control and the T/C [4] is reported as 102 % of control.
